Measurements from US11274102B2, “Compounds useful in HIV therapy” (GLAXOSMITHKLINE INTELLECTUAL PROPERTY DEVELOPMENT LIMITED, priority 2017, dated 2022).
Read-outs that look alike come from different tables or passages of the source.

How the values were obtained:
[1] = test system: HIV-infected Jurkat cell clones (C16, 115 and N6); test: Jurkat HIV Latency assay (HIV-expressed luciferase); type: cell-based; details: Homo sapiens, averaged potency for HIV latency disruption in Jurkat HIV cells, 24 hours incubation, read-out: Jurkat Mean PXC50 (converted)
Procedure: For the Jurkat HIV Latency assay, compounds were dissolved and titrated in DMSO and diluted 100-fold in assay medium (RPMI-1640 containing 10% fetal bovine serum) containing an equal mixture of three HIV-infected Jurkat cell clones (C16, 115 and N6) at a total concentration of 1-2×10^5 cells/mL. To test stability, compounds are pre-incubated in assay medium for 48 hours at 37° C. prior to adding cells (48 hr EC50). Compounds that induce HIV expression result in a dose-dependent production of the HIV expressed luciferase enzyme. After the incubation of cells with compound for 24 hours at 37° C., HIV activation and cytotoxicity are determined by measuring luminescence after the addition of Promega Steady-Glo® Luciferase Assay reagent or CellTiter-Glo® Luminescent Cell Viability Assay reagent, respectively.

[2] = test system: CD4+ T cells from HIV-infected donors; test: HIV latency disruption in primary patient CD4+ T cells (HIV gag RNA by RT-qPCR); type: cell-based; details: Homo sapiens
Procedure: For the assessment of compound activity in primary patient cells, PBMCs were obtained by continuous-flow leukapheresis from HIV-infected, antiretrovirally-treated, aviremic patients whose plasma HIV-1 RNA was less than 50 copies/mL at the time of collection. PBMCs were isolated by Ficoll-Hypaque density gradient centrifugation and cryopreserved in the vapor phase of liquid nitrogen. On the day of assay, cells were rapidly thawed to room temperature in a 37° C. water bath and total CD4+ T cells were isolated by negative selection (Stemcell Technologies). CD4+ T cells were reconstituted in assay medium (RPMI-1640 containing 10% fetal bovine serum, 10 ug/mL Fuzeon® and 200 nM Rilpivirin) and 5×10^6 were plated onto 2 mL 96-well polypropylene plates. Compounds were dissolved in DMSO, diluted 1:250 into assay medium and then titrated into assay medium supplemented with 0.4% DMSO with a minimum of 3 biological replicates per each treatment condition. Compound titrations were transferred to the cells and the assay plates were incubated at 37° C. for 24 hours. Following incubation, the assay plates were centrifuged at 400×g for 10 minutes and the cell-free supernatants were removed and discarded. The nucleic acid from the cell pellets were extracted, purified and segregated into RNA and DNA components using AllPrep DNA/RNA 96-well kits (Qiagen). HIV reactivation was quantified from the RNA fraction by one-step RT-qPCR (applied Biosystems) using primers and probe that target gag messenger RNA. HIV copies were calculated based on extrapolations from standard curves generated with known quantities of synthetic target HIV gag DNA in the same PCR reaction plate as the samples. A minimum of 3 technical RT-qPCR replicates were run for each biological replicate.
Data were normalized and modeled accordingly raw data were used to calculate the absolute number of HIV-gag RNA copies per million CD4+ T cells, with the value for each compound and concentration based on the averaged value of 3 to 5 biological replicates, with each biological replicate value being the average of 3 technical RT-qPCR replicates.
The dose-response curve was fit to an unconstrained four parameter logistic equation, defined as: y=Vmax{1−[x^n÷(K^n+x^n)]}+Y2 • Where: • x=compound concentration • y=normalized response data • Vmax=upper bound of response • K=EC50 • Y2=lower bound or baseline of response • n=hill coefficient
An example of dose-response HIV latency disruption in vitro is presented in FIG. 1 comparing the compound of invention (Example-1) to the compound of prior art (Compound-A) in peripheral blood CD4+ T cells from a HIV-infected fully-suppressed subject. […]

[3] = average potency from multiple donors, CD4+ T cells from HIV-infected donors, 24 hours, gag RNA, read-out: CD4 Mean PXC50 (converted)

| Compound | EC50 [1] [nM] | EC50 ([2]; FIG. 1, peripheral blood CD4+ T cells from a HIV-infected fully-suppressed subject, cell-associated HIV gag RNA, 4-parameter logistic regression, read-out: EC50) [nM] | EC50 [2, 3] [nM] |
| --- | --- | --- | --- |
| O=C1CCCN1Cc1nnc(Sc2ncnc3occ(-c4ccc(Cl)cc4)c23)o1 [Example 1, 1-((5-((5-(4-chlorophenyl)furo[2,3-d]pyrimidin-4-yl)thio)-1,3,4-oxadiazol-2-yl)methyl)pyrrolidin-2-one] | 632 | 47 | 35.7 |
| O=C1CCCN1Cc1nnc(Sc2ncnc3occ(-c4ccco4)c23)o1 [Example 4, 1-((5-((5-(furan-2-yl)furo[2,3-d]pyrimidin-4-yl)thio)-1,3,4-oxadiazol-2-yl)methyl)pyrrolidin-2-one] | 491 | – | 15 |
| Cc1ccc(-c2coc3ncnc(Sc4nnc(CN5CCCC5=O)o4)c23)s1 [Example 7, 1-((5-((5-(5-methylthiophen-2-yl)furo[2,3-d]pyrimidin-4-yl)thio)-1,3,4-oxadiazol-2-yl)methyl)pyrrolidin-2-one] | 625 | – | 390 |
| O=C1CCCN1Cc1nnc(Sc2ncnc3occ(-c4cccs4)c23)o1 [Example 6, 1-((5-((5-(thiophen-2-yl)furo[2,3-d]pyrimidin-4-yl)thio)-1,3,4-oxadiazol-2-yl)methyl)pyrrolidin-2-one] | 902 | – | – |
